According to PMC6246682, “Structural Basis of Tau Interaction With BIN1 and Regulation by Tau Phosphorylation” (Frontiers in Molecular Neuroscience, 2018):

Key:
BIN1 SH3 domain = biological target: T1, BIN1 SH3 domain (Homo sapiens, UniProt O00499); assay: NMR chemical shift perturbation titration, dissociation constant determination; type: binding; details: peptide/BIN1 SH3 molar ratios 0, 0.5, 1, 2, 4, 8 and 12; 1H-15N HSQC
T1 construct: The BIN1 isoform 1 and BIN1 SH3 domain were expressed and purified as previously described; made in house
T1 sequence (O00499 520-593 limits assumed): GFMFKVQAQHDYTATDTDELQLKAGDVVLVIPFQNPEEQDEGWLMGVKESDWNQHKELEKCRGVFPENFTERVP
Description: The weighted average chemical shift differences were calculated as described by [Garrett et al. (1997)] - i.e., (ΔH^2 + (ΔN×0.2)^2)^1/2, with ΔH and ΔN the chemical shift changes for ^1H and ^15N, respectively. Dissociation constants were obtained by fitting the chemical shift perturbation data to the following equation Δδobs = Δδmax(a + b + Kd−((a + b + Kd)^2−4ab)^1/2)/2a where Δδobs is the weighted average of the chemical shifts in the free and bound states and Δδmax is the maximal signal change upon saturation. Kd is the dissociation constant, a and b are the total peptide and BIN1 SH3 concentrations, respectively. Kd were averaged based on chemical shift perturbations of 7 distinct resonances.
Labeled resonances correspond to the major chemical shift perturbations, color coded as in Figure 4A. Enlarged regions of the superimposed spectra show 3 resonances involved in the interaction.
Det ail o f o ver la id 1H-15N HSQC spe ct ra o f BIN1 SH3 do ma in, in t he prese nce o f increa s ing a mo unt o f Tau(210-240) pept ide, mo lar rat io s pe pt ide/BIN1 SH3 0, 0.5, 1, 2, 4, 8 and 12 (co lo r sca le fro m purp le t o gray), o r o f p ho spho-Tau(210-240) pept ide, sa me mo lar rat ios (sa me co lo r sca le). A spect rum is reco rded fo r each t it rat io n po int . […]

BIN1 isoform 1 = assay: 1H-15N HSQC competition with intramolecular BIN1 SH3/CLAP interaction; type: binding; details: 1H-15N HSQC of BIN1 isoform 1 (0.08 mM), 20°C, 900 MHz, molar ratio 1:8
Description: NMR experiments were recorded on Bruker 950-MHz, 900-MHz, or 600-MHz spectrometers all equipped with a triple-resonance cryogenic probe. NMR measurements were performed in 50 mM sodium phosphate buffer, pH 7.3, 30 mM NaCl, 3 mM DTT and 10% D2O (NMR buffer). BIN1 SH3 domain backbone assignment has been previously reported ([Malki et al., 2017]). […] For side-chain assignment, additional 3D^15N NOESY-HSQC, 3D^15N-edited TOCSY, 3D (H)CCH TOCSY, and 3D H(C)CH TOCSY experiments were recorded. A 3D ^13C-edited NOESY was further used for side-chain assignment validation. All assignment experiments were recorded at 5°C. Chemical shift values (Supplementary Table S1) were directly transferred at 20°C, because the differences of chemical shift values were small between 5 and 20°C. […] BIN1 isoform 1 ^1H-^15N HSQC spectra were recorded at 20°C at 900 MHz (0.08 mM sample) with 3096 points (direct) and 280 points (indirect), for spectral width of 14 ppm and 26 ppm, respectively, and 256 scans. A 3D F1 ^13C/^15N-filtered and F3 ^15N-edited NOESY-HSQC, with WATERGATE (WATER suppression by GrAdient-Tailored Excitation) scheme ([Piotto et al., 1992]), named noesyhsqcf3gpwgx13d, part of the Bruker pulse sequence library, was recorded at 20°C at 950 MHz for the detection of intermolecular NOEs to amide groups. […] Spectra were processed using TopSpin software (Bruker) and analyzed by CcpNmr Analysis ([Vranken et al., 2005]).
As NMR is sensitive to mobility, this equilibrium translated into detection of BIN1 SH3 domain signals only upon its release from the intramolecular interaction ([Malki et al., 2017]). […] Consequently, in the presence of the phosphorylated Tau peptide (210–240), BIN1 SH3 domain remained immobilized by the intramolecular interaction with BIN1 isoform1 CLAP domain, mainly adopting the closed conformation.
(A) ^1H-^15N HSQC spectrum of BIN1 isoform 1 (112 KDa, homodimer). […] (B) ^1H-^15N HSQC spectra of BIN1 isoform 1 in the presence of phospho-Tau (210–240), molar ratio 1:8. The signals corresponding to the isolated BIN1 SH3 domain were barely detected.

phosphorylated Tau (210–240): Tau (210–240) phosphorylated by CDK2/CycA3; T212, T231, S235 full, T217 half-phosphorylated
saturation / affinity in titration (BIN1 SH3 domain): lo wer a ffin it y
competition with intramolecular BIN1 SH3/CLAP interaction (BIN1 isoform 1): not able to displace the intramolecular interaction of BIN1 SH3 with BIN1 CLAP domain
competition with intramolecular BIN1 SH3/CLAP interaction (BIN1 isoform 1; listed as Phospho-Tau (210–240)): cannot compete with the intramolecular interaction of BIN1 SH3 with the CLAP domain
competition with intramolecular BIN1 SH3/CLAP interaction (BIN1 isoform 1; listed as Tau (210–240) phosphorylated at four different sites (T212, T217, T231, and S235)): unable to compete with the intramolecular interaction of BIN1 SH3 domain with its CLAP domain
competition with intramolecular BIN1 SH3/CLAP interaction (BIN1 isoform 1; listed as Tau (210–240) phosphorylated at multiple sites): not able to compete with the intra-molecular interaction of BIN1 SH3 with the CLAP domain as efficiently as its unphosphorylated counterpart
